For data set [1], the target named is HIV-1 RNase H. More on the design: method as in ref 17-25, 27-29 (per compound as in Figure 1 legend). The following applies: known allosteric RNHIs, 27-29 (per compound as in Figure 1 legend), cited from earlier work.
Data set [2] has as its system HIV-1 RDDP. Set-up: method as in ref 17-21, 27-29 (per compound as in Figure 1 legend). The following applies: known allosteric RNHIs; 27-29 (per compound as in Figure 1 legend); cited from earlier work.
Data set [3] concerns HIV-1 replication. The following applies: cited from earlier work.
The subject of data set [4] is cell growth. Set-up: method as in PMID 17184135, PMID 23631411. The following applies: concentration that inhibits cell growth by 50%; read-out: CC50 (cytotoxicity); cited from earlier work.
The target in data set [5] is HIV-1 RT-associated RNase H (Human immunodeficiency virus type 1 group M subtype B, UniProt P03366). The experiment in a line: biochemical. It counts as biochemical.
The target of data set [6] is HIV-1 RT-associated RDDP (Human immunodeficiency virus type 1 group M subtype B, UniProt P03366). The experiment in a line: biochemical. It counts as biochemical.
Data set [7] deals with HIV-1 (IIIB strain). It counts as cell-based. The following applies: acutely infected MT-4 cells.
Data set [8] has as its system HIV-2 (ROD strain). The experiment in a line: Anti-HIV-2 activity in acutely infected MT-4 cells (MTT). It counts as cell-based.
A short description of data set [9]: in vitro. The following applies: human.
In data set [10] the target is HIV-2 RNase H. Set-up: method as in PMID 18831589. The following applies: cited from earlier work.
[11] abbreviates: 28 (per compound as in Figure 1 legend).

“Also recorded” adds a separate entry of the source. Like-named read-outs stand apart in the source and are kept apart here. Bounds are passed on as bounds.

On to `COc1ccc2ccccc2c1/C=N/NC(=O)c1ccc(O)c(O)c1` [Compound 1], for which the IC50 in [1] was 500 nM; in [2] it was more than 25000 nM. The EC50 in [3] (setting [11]) is 5500 nM. Moreover, in data set [4], the CC50 is more than 100000 nM.

`Cc1cc(-c2ccccc2)n2nc(NC(=O)c3ccc(O)c(O)c3)nc2n1` [Compound 12g, 3,4-Dihydroxy-N-(5-methyl-7-phenyl-[1,2,4]triazolo[1,5-a]pyrimidin-2-yl)benzamide] returned a melting point of 285 to 288 °C. The midpoint of inhibition in data set [5], the IC50, lay at 800 ± 200 nM. In data set [6], this molecule gave an IC50 of more than 100000 nM. In addition, in [7], the “anti-HIV-1 (IIIB strain) activity” value is “did not result in anti-HIV-1 activity in cellular context; also recorded: none of the compounds having RNase H inhibition showed anti-HIV activity at concentrations lower than those cytotoxic”. The “anti-HIV-2 (ROD strain) activity” value in data set [8] is given as “none of the compounds having RNase H inhibition showed anti-HIV activity at concentrations lower than those cytotoxic”. This molecule showed a CC50 at 5 days in [9] of 112000 nM.

Consider `Cc1cc(-c2ccccc2)nc2nc(NC(=O)c3ccc(O)c(O)c3)nn12` [Compound 13g, 3,4-Dihydroxy-N-(7-methyl-5-phenyl-[1,2,4]triazolo[1,5-a]pyrimidin-2-yl)benzamide], for which the melting point fell in the range of 298 to 312 °C. Further, in data set [5], inhibition was half-maximal at 3500 ± 1500 nM (IC50). The molecule further had an IC50 in data set [6] of more than 100000 nM. Moreover, the “anti-HIV-1 (IIIB strain) activity” value in [7] is reported as “none of the compounds having RNase H inhibition showed anti-HIV activity at concentrations lower than those cytotoxic”. For the same molecule, the “anti-HIV-2 (ROD strain) activity” value in [8] is listed as “none of the compounds having RNase H inhibition showed anti-HIV activity at concentrations lower than those cytotoxic”.

In turn, `O=C(Nc1nc2nc(-c3ccccc3)cc(-c3ccccc3)n2n1)c1ccc(O)c(O)c1` [Compound 15g, N-(5,7-diphenyl-[1,2,4]triazolo[1,5-a]pyrimidin-2-yl)-3,4-dihydroxybenzamide] gave a melting point of 258 to 260 °C. In addition, in data set [5], the IC50 is 1860 ± 540 nM. Besides, the IC50 in data set [6] came out at 20500 ± 4100 nM. The “fold weaker potency against RDDP than against RNase H” value in data set [6] (RDDP IC50 vs RNase H IC50) is given as 10 fold. Also, the “anti-HIV-1 (IIIB strain) activity” value in [7] was “none of the compounds having RNase H inhibition showed anti-HIV activity at concentrations lower than those cytotoxic”. For the same molecule, the “anti-HIV-2 (ROD strain) activity” value in data set [8] is listed as “none of the compounds having RNase H inhibition showed anti-HIV activity at concentrations lower than those cytotoxic”.

Turning to `NC(=O)c1c(N)sc2c1CCCCC2` [Compound 5], the IC50 in data set [5] was 4000 ± 500 nM; in [1], 2000 to 2500 nM; in data set [1] (listed as 5 (NSC727447)) it was 2000 nM; in data set [10] it was 2000 to 2500 nM; in data set [10] (listed as 5 (NSC727447)) it was 2500 nM. Further, the “EC50 (HIV-1 replication)” value in data set [3] (setting [11]) is “not active”. For the same molecule, in data set [3] (anti-HIV-1 activity vs cytotoxicity), the “selectivity index (SI)” value is listed as 4.

With `O=c1[nH]c(-c2ccc(O)c(O)c2)nc2sc3c(c12)CCCCC3` [Compound 7], the IC50 in [1] was 290 nM. Besides, in [3] (setting [11]), the EC50 is 1600 nM. Besides, the CC50 in data set [4] was 6800 nM.

The values above are taken from article PMC7179434, “1,2,4-Triazolo[1,5-a]pyrimidines as a Novel Class of Inhibitors of the HIV-1 Reverse Transcriptase-Associated Ribonuclease H Activity” (Molecules, 2020).
